Source: patent publication US9777000B2, “Pyrazole derivative” (MOCHIDA PHARMACEUTICAL CO., LTD., priority 2013, dated 2017)

Target: human PDE10 (Homo sapiens (Human), UniProt Q9Y233)
Experiment: Evaluation of enzyme inhibitory activity: human PDE10 inhibitory effect (IMAP TR-FRET)
Assay type: biochemical
Settings: cAMP substrate
Protocol: (Evaluation of Enzyme Inhibitory Activity: Human PDE10 Inhibitory Effect)
IMAP TR-FRET Phosphodiersterase Evaluation Assay Kit (Molecular Device) was used for the measurement. Ten μL of a diluted test compound having each concentration and 5 μL of the enzyme PDE10 (BPA Bioscience) that had been diluted to 2 ng/mL with 1×IMAP Reaction Buffer (prepared with 5×included with the kit, 10 mM Tris-HCl, pH=7.2, 10 mM MgCl2, 0.05% NaN3, and 0.1% BSA) containing 0.1% BSA were added to a 384-well plate (Corning). The obtained mixture was then pre-incubated at room temperature for 5 minutes. Thereafter, 5 μL of cAMP substrate solution which was included with the kit and diluted to 400 nM with 1×IMAP Reaction Buffer containing 0.1% BSA, was added to the reaction solution, and the obtained mixture was reacted at room temperature for 60 minutes. Thereafter, 60 μL of an IMAP TR-FRET Binding solution included with the kit was further added to the reaction solution, and the obtained mixture was then left for 3 hours or more. Subsequently, using ARVO SX (PerkinElmer), the fluorescent intensity of Terbium (Emission=490 nm) and TR-FRET (Emission=520 nm) in the reaction solution were measured at an excitation wavelength of 340 nm, so as to calculate the amount of the generated 5′-AMP. The count of a well to which a solvent had been added instead of the test compound was set at 0%, and the count of a well to which the enzyme PDE10 had not been added was set at 100%. Thus, the inhibitory activity of each test compound was calculated.
The PDE10 inhibitory activity of the test compound was indicated with an IC50 value. […] The test compounds are shown in Table 3 (Table 3-1 and Table 3-2).

human PDE10, sequence (Q9Y233 whole entry): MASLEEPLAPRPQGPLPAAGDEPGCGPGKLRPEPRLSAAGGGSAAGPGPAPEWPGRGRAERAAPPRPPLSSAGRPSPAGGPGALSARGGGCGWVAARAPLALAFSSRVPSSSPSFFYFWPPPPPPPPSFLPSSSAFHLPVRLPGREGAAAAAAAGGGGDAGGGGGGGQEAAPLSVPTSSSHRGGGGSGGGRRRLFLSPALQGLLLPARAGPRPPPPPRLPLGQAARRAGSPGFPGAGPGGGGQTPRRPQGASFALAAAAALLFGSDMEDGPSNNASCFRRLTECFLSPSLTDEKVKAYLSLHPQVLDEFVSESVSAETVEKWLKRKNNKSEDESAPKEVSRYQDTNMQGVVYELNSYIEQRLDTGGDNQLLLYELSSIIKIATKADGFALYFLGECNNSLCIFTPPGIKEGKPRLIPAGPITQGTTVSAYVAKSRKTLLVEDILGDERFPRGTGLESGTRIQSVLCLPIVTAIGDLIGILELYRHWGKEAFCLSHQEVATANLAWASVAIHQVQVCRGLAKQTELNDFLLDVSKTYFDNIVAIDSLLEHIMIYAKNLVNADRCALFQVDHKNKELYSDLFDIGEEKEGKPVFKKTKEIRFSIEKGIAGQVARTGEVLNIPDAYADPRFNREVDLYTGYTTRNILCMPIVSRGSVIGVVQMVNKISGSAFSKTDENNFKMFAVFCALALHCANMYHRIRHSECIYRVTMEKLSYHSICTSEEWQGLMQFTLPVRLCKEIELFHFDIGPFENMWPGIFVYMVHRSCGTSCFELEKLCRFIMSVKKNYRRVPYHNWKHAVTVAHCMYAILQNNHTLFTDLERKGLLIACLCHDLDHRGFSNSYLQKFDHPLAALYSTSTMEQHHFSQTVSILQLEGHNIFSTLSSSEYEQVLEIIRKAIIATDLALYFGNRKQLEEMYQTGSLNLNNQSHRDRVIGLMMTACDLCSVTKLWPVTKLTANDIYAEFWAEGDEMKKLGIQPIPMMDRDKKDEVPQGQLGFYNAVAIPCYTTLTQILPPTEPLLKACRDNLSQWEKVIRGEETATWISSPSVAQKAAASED

| Compound | IC50 [nM] |
| --- | --- |
| Cc1cnc(C)c(-c2cnn(C)c2C(=O)Nc2cc3nc(-c4ccccc4)nn3cc2F)n1 [Example 3.14, 4-(3,6-dimethyl-pyrazin-2-yl)-N-(6-fluoro-2-phenyl-[1,2,4]triazolo[1,5-a]pyridin-7-yl)-1-methyl-1H-pyrazole-5-carboxamide] | < 5 |
| Cn1ncc(-c2nc(C(F)F)cs2)c1C(=O)Nc1ccn2nc(-c3ccccc3)nc2c1 [Example 3.15, 4-(4-(difluoromethyl)thiazol-2-yl)-1-methyl-N-(2-phenyl-[1,2,4]triazolo[1,5-a]pyridin-7-yl)-1H-pyrazole-5-carboxamide] | < 5 |
| COc1ccccc1-c1nc2cc(NC(=O)c3c(-c4nc(C(F)F)cs4)cnn3C)ccn2n1 [Example 3.16, 4-(4-(difluoromethyl)thiazol-2-yl)-N-(2-(2-methoxyphenyl)-[1,2,4]triazolo[1,5-a]pyridin-7-yl)-1-methyl-1H-pyrazole-5-carboxamide] | < 5 |
| Cn1ncc(-c2nc(C(F)F)cs2)c1C(=O)Nc1ccn2nc(-c3cccc(F)c3)nc2c1 [Example 3.17, 4-(4-(difluoromethyl)thiazol-2-yl)-N-(2-(3-fluorophenyl)-[1,2,4]triazolo[1,5-a]pyridin-7-yl)-1-methyl-1H-pyrazole-5-carboxamide] | < 5 |
| CCc1csc(-c2cnn(C)c2C(=O)Nc2ccn3nc(-c4ccccc4)nc3c2)n1 [Example 3.18, 4-(4-ethylthiazol-2-yl)-1-methyl-N-(2-phenyl-[1,2,4]triazolo[1,5-a]pyridin-7-yl)-1H-pyrazole-5-carboxamide] | < 5 |
| C[C@@H]1CN(c2nc3cc(NC(=O)c4c(-c5nc(C(F)F)cs5)cnn4C)ccn3n2)C[C@H](C)O1 [Example 3.19, 4-(4-(difluoromethyl)thiazol-2-yl)-N-(2-((2S,6R)-2,6-dimethylmorpholino)-[1,2,4]triazolo[1,5-a]pyridin-7-yl)-1-methyl-1H-pyrazole-5-carboxamide] | < 5 |
| Cc1ncc(C)c(-c2cnn(C)c2C(=O)Nc2cc3nc(-c4ccccc4)nn3cc2F)n1 [Example 3.22, 4-(2,5-dimethylpyrimidin-4-yl)-N-(6-fluoro-2-phenyl-[1,2,4]triazolo[1,5-a]pyridin-7-yl)-1-methyl-1H-pyrazole-5-carboxamide] | < 5 |
| Cn1ncc(-c2ccc(C#N)cn2)c1C(=O)Nc1cc2nc(-c3ccccc3)nn2cc1F [Example 3.23, 4-(5-cyanopyridin-2-yl)-N-(6-fluoro-2-phenyl-[1,2,4]triazolo[1,5-a]pyridin-7-yl)-1-methyl-1H-pyrazole-5-carboxamide] | < 5 |
| Cc1ccnnc1-c1cnn(C)c1C(=O)Nc1cc2nc(-c3ccccc3)nn2cc1F [Example 3.24, N-(6-fluoro-2-phenyl-[1,2,4]triazolo[1,5-a]pyridin-7-yl)-1-methyl-4-(4-methylpyridazin-3-yl)-1H-pyrazole-5-carboxamide] | < 5 |
| Cc1nccc(-c2cnn(C)c2C(=O)Nc2cc3nc(-c4ccccc4)nn3cc2F)n1 [Example 3.25, N-(6-fluoro-2-phenyl-[1,2,4]triazolo[1,5-a]pyridin-7-yl)-1-methyl-4-(2-methylpyrimidin-4-yl)-1H-pyrazole-5-carboxamide] | < 5 |
| COc1nccc(-c2cnn(C)c2C(=O)Nc2cc3nc(-c4ccccc4)nn3cc2F)n1 [Example 3.26, N-(6-fluoro-2-phenyl-[1,2,4]triazolo[1,5-a]pyridin-7-yl)-4-(2-methoxypyrimidin-4-yl)-1-methyl-1H-pyrazole-5-carboxamide] | < 5 |
| COc1ncc(F)c(-c2cnn(C)c2C(=O)Nc2cc3nc(-c4ccccc4)nn3cc2F)n1 [Example 3.27, 4-(5-fluoro-2-methoxypyrimidin-4-yl)-N-(6-fluoro-2-phenyl-[1,2,4]triazolo[1,5-a]pyridin-7-yl)-1-methyl-1H-pyrazole-5-carboxamide] | < 5 |
| COc1nccnc1-c1cnn(C)c1C(=O)Nc1cc2nc(-c3ccccc3)nn2cc1F [Example 3.28, N-(6-fluoro-2-phenyl-[1,2,4]triazolo[1,5-a]pyridin-7-yl)-4-(3-methoxypyrazin-2-yl)-1-methyl-1H-pyrazole-5-carboxamide] | < 5 |
| Cn1ncc(-c2ncncc2Cl)c1C(=O)Nc1cc2nc(-c3ccccc3)nn2cc1F [Example 3.29, 4-(5-chloropyrimidin-4-yl)-N-(6-fluoro-2-phenyl-[1,2,4]triazolo[1,5-a]pyridin-7-yl)-1-methyl-1H-pyrazole-5-carboxamide] | < 5 |
| COc1ncnc(-c2cnn(C)c2C(=O)Nc2cc3nc(-c4ccccc4)nn3cc2F)c1C [Example 3.31, N-(6-fluoro-2-phenyl-[1,2,4]triazolo[1,5-a]pyridin-7-yl)-4-(6-methoxy-5-methylpyrimidin-4-yl)-1-methyl-1H-pyrazole-5-carboxamide] | < 5 |
| Cc1nccnc1-c1cnn(C)c1C(=O)Nc1cc2nc(-c3ccccc3)nn2cc1F [Example 3.32, N-(6-fluoro-2-phenyl-[1,2,4]triazolo[1,5-a]pyridin-7-yl)-1-methyl-4-(3-methylpyrazin-2-yl)-1H-pyrazole-5-carboxamide] | < 5 |
| Cc1cncnc1-c1cnn(C)c1C(=O)Nc1cc2nc(-c3ccccc3)nn2cc1F [Example 3.33, N-(6-fluoro-2-phenyl-[1,2,4]triazolo[1,5-a]pyridin-7-yl)-1-methyl-4-(5-methylpyrimidin-4-yl)-1H-pyrazole-5-carboxamide] | < 5 |
| COc1cncnc1-c1cnn(C)c1C(=O)Nc1cc2nc(-c3ccccc3)nn2cc1F [Example 3.34, N-(6-fluoro-2-phenyl-[1,2,4]triazolo[1,5-a]pyridin-7-yl)-4-(5-methoxypyrimidin-4-yl)-1-methyl-1H-pyrazole-5-carboxamide] | < 5 |
| Cc1ncnc(-c2cnn(C)c2C(=O)Nc2cc3nc(-c4ccccc4)nn3cc2F)c1C [Example 3.35, 4-(5,6-dimethylpyrimidin-4-yl)-N-(6-fluoro-2-phenyl-[1,2,4]triazolo[1,5-a]pyridin-7-yl)-1-methyl-1H-pyrazole-5-carboxamide] | < 5 |
| Cc1ncc(F)c(-c2cnn(C)c2C(=O)Nc2cc3nc(-c4ccccc4)nn3cc2F)n1 [Example 3.36, 4-(5-fluoro-2-methylpyrimidin-4-yl)-N-(6-fluoro-2-phenyl-[1,2,4]triazolo[1,5-a]pyridin-7-yl)-1-methyl-1H-pyrazole-5-carboxamide] | < 5 |
| Cc1nc(C)c(C)c(-c2cnn(C)c2C(=O)Nc2cc3nc(-c4ccccc4)nn3cc2F)n1 [Example 3.37, N-(6-fluoro-2-phenyl-[1,2,4]triazolo[1,5-a]pyridin-7-yl)-1-methyl-4-(2,5,6-trimethylpyrimidin-4-yl)-1H-pyrazole-5-carboxamide] | < 5 |
| Cc1ncnc(-c2cnn(C)c2C(=O)Nc2cc3nc(-c4ccccc4)nn3cc2F)c1F [Example 3.38, N-(6-fluoro-2-phenyl-[1,2,4]triazolo[1,5-a]pyridin-7-yl)-4-(5-fluoro-6-methylpyrimidin-4-yl)-1-methyl-1H-pyrazole-5-carboxamide] | < 5 |
| Cc1cc(-c2cnn(C)c2C(=O)Nc2cc3nc(-c4ccccc4)nn3cc2F)ncn1 [Example 3.39, N-(6-fluoro-2-phenyl-[1,2,4]triazolo[1,5-a]pyridin-7-yl)-1-methyl-4-(6-methylpyrimidin-4-yl)-1H-pyrazole-5-carboxamide] | < 5 |
